Experimental data from the supplement of paper PMC11451515.

Columns and labels:
Settings in all cases: 48 h
NOMO1 [1] = assay: cell viability relative to DMSO control; higher = less cytotoxic
Outline: (§1)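 In 1536-well plates, 5 μl of leukemia cells were seeded per well: 500 cells/well for NOMO1 or SEM and 1000 cells/well for P12-Ichikawa. Each line had first been adapted for at least four passages in each medium. Library compounds in DMSO were pin-dosed at 11 threefold concentrations between 47 μM and 0.79 nM, and CellTiter-Glo One luminescence was read after 48 h at 37°C. Viability is a per-plate percentage relative to DMSO wells, with cell-free wells as background.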

SEM cells [2] = assay: as above
Outline: as §1

P12-Ichikawa [3] = assay: as above
Outline: as §1

NOMO1 [4] = assay: AUC of viability dose-response curve (% viability x log10 dose units); higher = less sensitive
Outline: (§2)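 Area under the curve was integrated by trapezoidal rule from a log-logistic fit of normalised viability, with curves exceeding full viability scaled and quality-control failures removed. The fit had four parameters over log10 doses. Viability came from CellTiter-Glo One luminescence, normalised per plate to DMSO and cell-free wells, after leukemia cells adapted to each medium (500 or 1000 cells/well, 1536-well plates) were exposed to library compounds in DMSO for 48 h at 37°C. The 11 threefold doses ran from 47 μM to 0.79 nM.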

SEM cells [5] = assay: as above
Outline: as §2

P12-Ichikawa [6] = assay: as above
Outline: as §2

O=[N+]([O-])c1ncc[nH]1
cell viability [%]
Settings | NOMO1 [1] | P12-Ichikawa [3] | SEM cells [2]
HPLM + 10% dialyzed FBS, 0.000781 µM | 90.7 | 93.7 | 86
HPLM + 10% dialyzed FBS, 0.00234 µM | 84.4 | 88 | 88.2
HPLM + 10% dialyzed FBS, 0.00702 µM | 90.2 | 88.2 | 99.9
HPLM + 10% dialyzed FBS, 0.0211 µM | 78.4 | 83.4 | 93.1
HPLM + 10% dialyzed FBS, 0.0632 µM | 91 | 97 | 74.6
HPLM + 10% dialyzed FBS, 0.19 µM | 97.4 | 102 | 88
HPLM + 10% dialyzed FBS, 0.569 µM | 89.7 | 88.4 | 76.1
HPLM + 10% dialyzed FBS, 1.71 µM | 89.4 | 81 | 84
HPLM + 10% dialyzed FBS, 5.12 µM | 80.8 | 84.5 | 89.3
HPLM + 10% dialyzed FBS, 15.4 µM | 91.7 | 75.4 | 79.9
HPLM + 10% dialyzed FBS, 46.1 µM | 75.8 | 80.5 | 55.1
RPMI 5 mM glucose + 10% FBS, 0.000781 µM | 86.3 | 88 | 98.2
RPMI 5 mM glucose + 10% FBS, 0.00234 µM | 85.5 | 91 | 91.2
RPMI 5 mM glucose + 10% FBS, 0.00702 µM | 90.9 | 84.6 | 94.5
RPMI 5 mM glucose + 10% FBS, 0.0211 µM | 84.2 | 84.8 | 113
RPMI 5 mM glucose + 10% FBS, 0.0632 µM | 90.9 | 91.6 | 94.9
RPMI 5 mM glucose + 10% FBS, 0.19 µM | 87.3 | 86.9 | 93.5
RPMI 5 mM glucose + 10% FBS, 0.569 µM | 84.1 | 78 | 87.2
RPMI 5 mM glucose + 10% FBS, 1.71 µM | 76.9 | 74.1 | 81.3
RPMI 5 mM glucose + 10% FBS, 5.12 µM | 80.3 | 81 | 93.9
RPMI 5 mM glucose + 10% FBS, 15.4 µM | 85.7 | 70.5 | 100
RPMI 5 mM glucose + 10% FBS, 46.1 µM | 74 | 78.8 | 74.3
RPMI 5 mM glucose + 10% dialyzed FBS, 0.000781 µM | 88.5 | 88.7 | 108
RPMI 5 mM glucose + 10% dialyzed FBS, 0.00234 µM | 93.7 | 86.1 | 97.4
RPMI 5 mM glucose + 10% dialyzed FBS, 0.00702 µM | 88.7 | 82.7 | 101
RPMI 5 mM glucose + 10% dialyzed FBS, 0.0211 µM | 87.2 | 98.4 | 101
RPMI 5 mM glucose + 10% dialyzed FBS, 0.0632 µM | 75.8 | 104 | 90.4
RPMI 5 mM glucose + 10% dialyzed FBS, 0.19 µM | 82.5 | 99.9 | 93.7
RPMI 5 mM glucose + 10% dialyzed FBS, 0.569 µM | 78.6 | 65.7 | 94.8
RPMI 5 mM glucose + 10% dialyzed FBS, 1.71 µM | 81 | 78 | 85.8
RPMI 5 mM glucose + 10% dialyzed FBS, 5.12 µM | 83.2 | 98 | 108
RPMI 5 mM glucose + 10% dialyzed FBS, 15.4 µM | 76.1 | 71 | 106
RPMI 5 mM glucose + 10% dialyzed FBS, 46.1 µM | 87.7 | 80.5 | 49.8

AUC of viability dose-response curve
Settings | NOMO1 [4] | P12-Ichikawa [6] | SEM cells [5]
HPLM + 10% dialyzed FBS | 416 | 418 | 402
RPMI 5 mM glucose + 10% FBS | 402 | 395 | 444
RPMI 5 mM glucose + 10% dialyzed FBS | 400 | 414 | 459

Cc1cn[nH]c1
cell viability [%], SEM cells [2]
Settings | HPLM + 10% dialyzed FBS | RPMI 5 mM glucose + 10% dialyzed FBS
0.000781 µM | 89.9 | 106
0.00234 µM | 115 | 121
0.00702 µM | 121 | 119
0.0211 µM | 115 | 131
0.0632 µM | 118 | 123
0.19 µM | 122 | 131
0.569 µM | 121 | 138
1.71 µM | 121 | 123
5.12 µM | 114 | 143
15.4 µM | 69 | 94.6
46.1 µM | 95.6 | 115

AUC of viability dose-response curve
Settings | NOMO1 [4] | P12-Ichikawa [6] | SEM cells [5]
HPLM + 10% dialyzed FBS | 456 | 461 | 456
RPMI 5 mM glucose + 10% FBS | 471 | 469 | 458
RPMI 5 mM glucose + 10% dialyzed FBS | 465 | 461 | 476

CC(=O)c1cnc2ccc(-c3cc(Cl)c(O)c(Cl)c3)nc2c1N[C@H]1CC[C@H](CN(C)C)CC1
SEM cells [2], HPLM + 10% dialyzed FBS
Settings | cell viability [%]
0.000781 µM | 110
0.00234 µM | 101
0.00702 µM | 105
0.0211 µM | 99.2
0.0632 µM | 63.5
0.19 µM | 25.4
0.569 µM | 16.2
1.71 µM | 6.2
5.12 µM | 6.52
15.4 µM | 5.71
46.1 µM | 6.59

AUC of viability dose-response curve
Settings | NOMO1 [4] | P12-Ichikawa [6] | SEM cells [5]
HPLM + 10% dialyzed FBS | 211 | 277 | 218
RPMI 5 mM glucose + 10% FBS | 237 | 256 | 213
RPMI 5 mM glucose + 10% dialyzed FBS | 237 | 253 | 208

COc1ccc(COc2cc3oc(=O)c4cc(C(C)O)ccc4c3cc2OC)cc1 (configuration not stated)
AUC of viability dose-response curve
Settings | NOMO1 [4] | P12-Ichikawa [6] | SEM cells [5]
HPLM + 10% dialyzed FBS | 446 | 457 | 451
RPMI 5 mM glucose + 10% FBS | 449 | 444 | 450
RPMI 5 mM glucose + 10% dialyzed FBS | 455 | 434 | 461

COc1ccc2cc3[n+](cc2c1OC)CCc1cc2c(cc1-3)OCO2
AUC of viability dose-response curve
Settings | NOMO1 [4] | P12-Ichikawa [6] | SEM cells [5]
HPLM + 10% dialyzed FBS | 431 | 429 | 445
RPMI 5 mM glucose + 10% FBS | 441 | 390 | 437
RPMI 5 mM glucose + 10% dialyzed FBS | 442 | 411 | 428

CC1=CC=C2N=C(NC(=O)CS\C3=N\C4=C(\SCC4)C(=O)N3C5=CC=CC=C5)SC2=C1
AUC of viability dose-response curve
Settings | HPLM + 10% dialyzed FBS | RPMI 5 mM glucose + 10% FBS | RPMI 5 mM glucose + 10% dialyzed FBS
P12-Ichikawa [6] | 444 | 430 | 435
SEM cells [5] | 424 | 421 | 446

C[C@H](NCc1ccc2c(c1)nc(NC(=O)c1ccc(-c3cn[nH]c3)s1)n2CCc1ccccc1)C(C)(C)C
AUC of viability dose-response curve
Settings | NOMO1 [4] | P12-Ichikawa [6] | SEM cells [5]
HPLM + 10% dialyzed FBS | 373 | 410 | 248
RPMI 5 mM glucose + 10% FBS | 404 | 403 | 242
RPMI 5 mM glucose + 10% dialyzed FBS | 396 | 412 | 224

O=C(/C=C/c1ccc(CN(CCO)CCc2c[nH]c3ccccc23)cc1)NO
AUC of viability dose-response curve
Settings | NOMO1 [4] | P12-Ichikawa [6] | SEM cells [5]
HPLM + 10% dialyzed FBS | 296 | 275 | 262
RPMI 5 mM glucose + 10% FBS | 295 | 271 | 261
RPMI 5 mM glucose + 10% dialyzed FBS | 303 | 277 | 269

CC(C)OC(=O)C(C)(C)Oc1ccc(C(=O)c2ccc(Cl)cc2)cc1
AUC of viability dose-response curve
Settings | NOMO1 [4] | P12-Ichikawa [6] | SEM cells [5]
HPLM + 10% dialyzed FBS | 469 | 447 | 446
RPMI 5 mM glucose + 10% FBS | 459 | 446 | 423
RPMI 5 mM glucose + 10% dialyzed FBS | 466 | 464 | 442

Cn1cc(-c2ccc3nnc(Sc4ccc5ncccc5c4)n3n2)cn1
AUC of viability dose-response curve
Settings | NOMO1 [4] | P12-Ichikawa [6] | SEM cells [5]
HPLM + 10% dialyzed FBS | 463 | 460 | 457
RPMI 5 mM glucose + 10% FBS | 449 | 448 | 475
RPMI 5 mM glucose + 10% dialyzed FBS | 455 | 459 | 472

C[C@@H]1C/C=C/C=C/C=C/C=C/[C@@H](O[C@@H]2O[C@H](C)[C@@H](O)[C@H](N)[C@@H]2O)C[C@@H]2O[C@](O)(C[C@@H](O)C[C@@H]3O[C@H]3/C=C/C(=O)O1)C[C@H](O)[C@H]2C(=O)O
SEM cells [2], HPLM + 10% dialyzed FBS
Settings | cell viability [%]
0.000781 µM | 108
0.00234 µM | 120
0.00702 µM | 103
0.0211 µM | 129
0.0632 µM | 131
0.19 µM | 119
0.569 µM | 124
1.71 µM | 106
5.12 µM | 115
15.4 µM | 120
46.1 µM | 114

AUC of viability dose-response curve
Settings | NOMO1 [4] | P12-Ichikawa [6] | SEM cells [5]
HPLM + 10% dialyzed FBS | 449 | 439 | 475
RPMI 5 mM glucose + 10% FBS | 460 | 466 | 461
RPMI 5 mM glucose + 10% dialyzed FBS | 457 | 461 | 462

C=C1/C(=C/C=C2\CCCC3(C)[C@@H]([C@H](C)/C=C/C=C/C(O)(CC)CC)CC[C@@H]23)C[C@@H](O)C[C@@H]1O (some centres not stated)
AUC of viability dose-response curve
Settings | NOMO1 [4] | P12-Ichikawa [6] | SEM cells [5]
HPLM + 10% dialyzed FBS | 437 | 463 | 463
RPMI 5 mM glucose + 10% FBS | 422 | 451 | 460
RPMI 5 mM glucose + 10% dialyzed FBS | 445 | 455 | 448

COc1ccc(C(=O)N2CCCC2=O)cc1
AUC of viability dose-response curve
Settings | NOMO1 [4] | P12-Ichikawa [6] | SEM cells [5]
HPLM + 10% dialyzed FBS | 447 | 447 | 449
RPMI 5 mM glucose + 10% FBS | 456 | 456 | 422
RPMI 5 mM glucose + 10% dialyzed FBS | 467 | 439 | 461
